Assay results: publication PMC6349357, “Computational and experimental analysis of bioactive peptide linear motifs in the integrin adhesome” (PLoS ONE, 2019)
Marks after values point to notes of the source that are not given here.

How the values were obtained:
resting platelets = experiment: Platelet aggregation induced by peptide in resting washed platelets (activation); assay type: cell-based, human (healthy volunteers)
Method in brief: (§1)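 Aggregation was read by optical density at 37°C under 1100 rpm stirring. Samples were 3x10^5/μl washed human platelets, rested 45 min and supplemented with 1.8 mM calcium chloride. Peptide went in at 2 min, followed 6 min later by TRAP at an experiment-dependent concentration, with 7 min further recording.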

TRAP-activated platelets = experiment: Inhibition of TRAP-induced platelet aggregation after pre-incubation with peptide; assay type: cell-based, human (healthy volunteers)
Method in brief: as §1

vinculin in HeLa cells = biological target: T1, vinculin in HeLa cells (Homo sapiens, UniProt P18206); experiment: Co-localization of 5FAM-labeled peptide with vinculin in HeLa cells (microscopy); assay type: cell-based; settings: 15 μM, 5-15 minutes
T1 construct: endogenous in cells; host or cells: HeLa
T1 sequence (P18206 1-1066 isoform P18206-2): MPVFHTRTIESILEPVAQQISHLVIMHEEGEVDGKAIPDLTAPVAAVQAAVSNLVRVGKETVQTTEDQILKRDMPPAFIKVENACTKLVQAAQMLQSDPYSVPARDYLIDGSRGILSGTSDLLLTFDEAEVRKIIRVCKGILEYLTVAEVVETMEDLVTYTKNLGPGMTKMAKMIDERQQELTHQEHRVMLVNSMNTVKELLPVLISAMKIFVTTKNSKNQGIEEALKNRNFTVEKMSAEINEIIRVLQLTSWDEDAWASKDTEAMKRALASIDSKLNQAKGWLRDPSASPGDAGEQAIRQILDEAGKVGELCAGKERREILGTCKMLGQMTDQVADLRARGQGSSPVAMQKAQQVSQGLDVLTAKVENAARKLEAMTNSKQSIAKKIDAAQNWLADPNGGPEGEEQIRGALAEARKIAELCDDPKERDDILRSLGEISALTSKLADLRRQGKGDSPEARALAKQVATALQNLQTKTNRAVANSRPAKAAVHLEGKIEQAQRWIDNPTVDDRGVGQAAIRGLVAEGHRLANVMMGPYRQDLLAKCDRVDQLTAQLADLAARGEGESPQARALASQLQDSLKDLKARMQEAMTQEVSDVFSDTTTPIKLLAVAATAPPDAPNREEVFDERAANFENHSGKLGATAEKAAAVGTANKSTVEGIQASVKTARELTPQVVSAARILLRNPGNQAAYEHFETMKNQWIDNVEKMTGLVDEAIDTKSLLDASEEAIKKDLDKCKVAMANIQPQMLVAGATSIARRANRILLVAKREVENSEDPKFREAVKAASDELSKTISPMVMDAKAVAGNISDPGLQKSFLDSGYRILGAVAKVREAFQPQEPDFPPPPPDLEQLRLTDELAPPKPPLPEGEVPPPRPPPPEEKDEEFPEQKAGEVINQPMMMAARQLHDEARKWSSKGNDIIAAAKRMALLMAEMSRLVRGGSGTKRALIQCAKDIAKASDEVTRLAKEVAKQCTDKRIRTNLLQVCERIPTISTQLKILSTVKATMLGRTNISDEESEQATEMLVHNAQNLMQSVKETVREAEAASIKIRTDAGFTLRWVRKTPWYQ
Experimental: (§2) HeLa cells were seeded on a 24-well plate with inserted coverslips at a density of 30000 cells/well. After 24h the cells were treated with 15 μM peptide for the desired amount of time (5, 10, 15 minutes). Cells were then fixed in 3% paraformaldehyde (PFA, Sigma) for 20 minutes and permeabilized with 0.1% Triton X-100 (Sigma) for 5 minutes at room temperature. Cells were then washed 3 times with PBS and stained with antibodies. Staining with primary antibody (paxillin/vinculin (Abcam)) was performed for 30 minutes, followed by three PBS washes and secondary staining using goat anti-mouse Alexa 568 antibody (Life Technologies) for 30 minutes. Then the nuclei were stained with 0.2 μg/ml Hoechst33342, the coverslips were thoroughly washed with PBS and mounted on glass slides with Mowiol mounting medium. The slides were then imaged on a FluoView FV1000 laser scanning microscope (Olympus) with 60x UPLSAPO 1.35NA (Olympus) oil immersion objective.

paxillin in HeLa cells = biological target: T2, paxillin in HeLa cells (Homo sapiens, UniProt P49023); experiment: Co-localization of 5FAM-labeled peptide with paxillin in HeLa cells (microscopy); assay type: cell-based; settings: 15 μM, 5-15 minutes
T2 construct: endogenous in cells; host or cells: HeLa
T2 sequence (P49023 whole entry): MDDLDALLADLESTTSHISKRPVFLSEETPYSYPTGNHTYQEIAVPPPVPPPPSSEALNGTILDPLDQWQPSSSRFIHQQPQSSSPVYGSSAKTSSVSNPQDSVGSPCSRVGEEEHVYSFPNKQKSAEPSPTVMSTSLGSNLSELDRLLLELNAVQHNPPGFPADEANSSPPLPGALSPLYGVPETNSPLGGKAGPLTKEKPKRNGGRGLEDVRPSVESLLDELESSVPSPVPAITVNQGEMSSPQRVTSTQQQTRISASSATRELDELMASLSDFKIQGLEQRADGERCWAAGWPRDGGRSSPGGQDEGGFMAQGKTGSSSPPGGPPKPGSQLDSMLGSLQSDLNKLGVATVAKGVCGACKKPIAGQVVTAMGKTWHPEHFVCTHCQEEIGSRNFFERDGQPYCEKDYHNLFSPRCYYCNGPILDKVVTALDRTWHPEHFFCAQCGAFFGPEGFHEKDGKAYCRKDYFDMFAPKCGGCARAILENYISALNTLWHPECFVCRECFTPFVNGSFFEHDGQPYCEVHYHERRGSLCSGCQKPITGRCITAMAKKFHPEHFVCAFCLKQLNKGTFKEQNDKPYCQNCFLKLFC
Experimental: as §2

Co-localization with vinculin (vinculin in HeLa cells): co-localized with vinculin
Co-localization with paxillin (paxillin in HeLa cells): did not co-localize
Substance: tat-WEQLLTTIARTINEVENQI-(NH2) [tat-ACTN1_VBS]
Platelet activation, donor 14 06 13 (resting platelets; Fig S10 sheet, replicate 14_06_13, peptide 50 µM, unit assumed): 68%
Platelet activation, donor 18 06 13 (resting platelets; Fig S10 sheet, replicate 18_06_13, peptide 50 µM, unit assumed): 73%
Platelet activation, donor 22 08 13 DONOR1 (resting platelets; Fig S10 sheet, replicate 22_08_13_DONOR1, peptide 50 µM, unit assumed): 59%
Platelet activation, donor 22 08 13 DONOR2 (resting platelets; Fig S10 sheet, replicate 22_08_13_DONOR2, peptide 50 µM, unit assumed): 41%
Activation (resting platelets; platelet aggregation in resting platelets after 6 minutes incubation with peptide, pal-peptides 20 μM, tat-peptides 50 μM, optical density, aggregometer, mean, n>=3): 66 ^*
Aggregation before TRAP activation, donor e (resting platelets; replicate donor e, pal 20 μM, tat 50 μM): 73
Aggregation before TRAP activation, donor k (resting platelets; replicate donor k, pal 20 μM, tat 50 μM): 59
Aggregation before TRAP activation, donor l (resting platelets; replicate donor l, pal 20 μM, tat 50 μM): 68
Aggregation after TRAP, peptide alone 1x (A 1x / B 1x) (TRAP-activated platelets; TRAP 2 μM after 6 minutes pre-incubation, 4 μM pal-peptides, 10 μM tat-peptides, mean n = 3): 68.33
Aggregation after TRAP, peptide alone 2x (A 2x / B 2x) (TRAP-activated platelets; TRAP 2 μM after 6 minutes pre-incubation, double concentration of 4 μM (pal) / 10 μM (tat), mean n = 3): 68.67
Platelet aggregation after TRAP activation (TRAP-activated platelets; platelet aggregation induced by 4 μM TRAP in platelets pre-incubated with peptide (low value = inhibition), pal-peptides 20 μM, tat-peptides 50 μM, mean, n>=3): 61 ^*
Aggregation after TRAP activation, donor e (TRAP-activated platelets; replicate donor e, TRAP 4 μM, pal 20 μM, tat 50 μM): 66
Aggregation after TRAP activation, donor k (TRAP-activated platelets; replicate donor k, TRAP 4 μM, pal 20 μM, tat 50 μM): 51
Aggregation after TRAP activation, donor l (TRAP-activated platelets; replicate donor l, TRAP 4 μM, pal 20 μM, tat 50 μM): 68
